Experimental data as given in US7977330B2, “Salts and crystal modifications thereof” (Novartis AG, priority 2006, dated 2011).

Assay: solubility in aqueous media
Assay type: physicochemical
Details: qualitative statement

| Compound | solubility in aqueous media |
| --- | --- |
| O.O=C(Nc1ccccc1F)NC1N=C(c2ccccc2)c2ccccc2NC1=O.O=S(=O)(O)c1ccccc1 (centres unmarked) [RSV604 Besylate Monohydrate Salt, 1-(2-Fluoro-phenyl)-3-(2-oxo-5-phenyl-2,3-dihydro-1H-benzo[e][1,4]diazepin-3-yl)-urea besylate monohydrate] | particularly good solubility properties |
| O=C(Nc1ccccc1F)NC1N=C(c2ccccc2)c2ccccc2NC1=O (centres unmarked) [RSV604 free base, 1-(2-Fluoro-phenyl)-3-(2-oxo-5-phenyl-2,3-dihydro-1H-benzo[e][1,4]diazepin-3-yl)-urea] | low solubility |
